Results: patent US20070179161A1, “Pyrazolopyrimidine compounds and their use in medicine” (VERNALIS (CAMBRIDGE) LIMITED., priority 2003, published 2007)

Tests used:
Assay type in all cases: biochemical
[1] = target: CDK-2 enzyme, complexed with cyclin A (Homo sapiens, UniProt P24941); test: CDK2 enzyme inhibition assay (33P phosphorylation of peptide […], filter plate); settings: CDK-2/cyclin A, 0.1 mM ATP, 40 min at 30° C.
Procedure: (§1) The assay mixture containing the inhibitor and CDK-2 enzyme, complexed with cyclin A (0.4 U/ml) was mixed together in a microtiter plate in a final volume of 50 μl and incubated for 40 min at 30° C. The assay mixture contained 0.1 mM unlabeled ATP, 0.01 μCi/μl ^33P-γ-ATP, 0.03 mM peptide, 0.1 mg/ml BSA, 7.5 mM magnesium acetate, 50 mM HEPES-NaOH, pH 7.5. The reaction was stopped by adding 50 μl of 50 mM phosphoric acid. 90 μl of the mixture were transferred to a pre-wetted 96-well Multiscreen MAPHNOB filtration plate (Millipore) and filtered on a vacuum manifold. […] The filtration plate was dried for 10 min at 65° C., scintillant added and phosphorylated peptide quantified in a scintillation counter (Trilux, PerkinElmer)
HEPES is N-[2-Hydroxyethyl]piperazine-N′-[2-ethanesulfonic acid] BSA is bovine serum albumin.

[2] = target: T1, GST-Chk1 enzyme (Homo sapiens, UniProt O14757); test: Chk1 kinase inhibition assay (33P phosphorylation of Chktide, filter plate); settings: 0.01 mM ATP, 11 nM GST-Chk1, 40 minutes at 30° C.; read-out: Chk1 IC50
T1 sequence (O14757 1-476): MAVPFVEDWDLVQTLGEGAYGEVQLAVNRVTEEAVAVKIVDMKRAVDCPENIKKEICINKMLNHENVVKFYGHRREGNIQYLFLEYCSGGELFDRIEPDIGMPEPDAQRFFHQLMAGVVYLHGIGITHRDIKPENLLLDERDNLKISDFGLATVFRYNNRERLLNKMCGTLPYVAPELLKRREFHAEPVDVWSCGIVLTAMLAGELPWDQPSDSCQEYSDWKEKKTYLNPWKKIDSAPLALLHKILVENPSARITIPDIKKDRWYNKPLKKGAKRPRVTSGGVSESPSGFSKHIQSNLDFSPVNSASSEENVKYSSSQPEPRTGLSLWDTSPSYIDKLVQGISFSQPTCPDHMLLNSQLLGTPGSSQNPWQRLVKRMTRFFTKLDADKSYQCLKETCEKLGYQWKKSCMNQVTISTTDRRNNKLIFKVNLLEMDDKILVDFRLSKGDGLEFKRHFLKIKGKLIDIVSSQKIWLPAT
Procedure: The assay mixture containing the inhibitor and Chk1 enzyme was mixed together in a microtiter plate in a final volume of 50 μl and incubated for 40 minutes at 30° C.
The reaction was stopped by adding 50 μl of 50 mM phosphoric acid. 90 μl of the mixture was transferred to a pre-wetted 96-well Multiscreen MAPHNOB filtration plate (Millipore) and filtered on a vacuum manifold. […] The filtration plate was dried for 10 min at 65° C., scintillant added and phosphorylated peptide quantified in a scintillation counter (Trilux, PerkinElmer)

[3] = target: T2, PDK1 enzyme (Homo sapiens, UniProt O15530); test: PDK1 kinase inhibition assay (33P phosphorylation of synthetic peptide, filter plate); settings: 0.01 mM ATP, 60 min at 30° C.; read-out: PDK1 IC50
T2 sequence (O15530 1-556): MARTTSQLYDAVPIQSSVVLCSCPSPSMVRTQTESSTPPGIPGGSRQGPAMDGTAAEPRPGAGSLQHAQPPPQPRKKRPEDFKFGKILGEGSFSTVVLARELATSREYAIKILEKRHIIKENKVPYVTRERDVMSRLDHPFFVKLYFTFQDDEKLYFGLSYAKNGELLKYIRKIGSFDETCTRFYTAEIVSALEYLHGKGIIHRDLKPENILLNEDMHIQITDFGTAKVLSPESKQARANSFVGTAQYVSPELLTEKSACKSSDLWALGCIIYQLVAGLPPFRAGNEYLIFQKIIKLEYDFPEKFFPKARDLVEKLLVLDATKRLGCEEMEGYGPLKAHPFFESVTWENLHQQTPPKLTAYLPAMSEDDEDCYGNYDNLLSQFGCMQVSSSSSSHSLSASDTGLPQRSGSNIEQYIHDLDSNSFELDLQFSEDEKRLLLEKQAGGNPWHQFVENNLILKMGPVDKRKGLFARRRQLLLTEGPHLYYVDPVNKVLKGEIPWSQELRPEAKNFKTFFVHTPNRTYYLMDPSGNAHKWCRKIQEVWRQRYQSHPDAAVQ
Procedure: as §1, with “and PDK1 enzyme” for “and CDK-2 enzyme, complexed with cyclin A (0.4 U/ml)”, “for 60” for “for 40”, “contained 0.01” for “contained 0.1”, “^33P-γ-ATP, 0.075” for “^33P-γ-ATP, 0.03”, “acetate, 0.05M Tris.HCl,” for “acetate, 50 mM HEPES-NaOH,”, “pH 7.5, 0.5% 2-mercaptoethanol.” for “pH 7.5.”

Compound	IC50 [1] [µM]	IC50 [2] [µM]	IC50 [3] [µM]
CC(C)c1cnn2c(Nc3ccc(S(C)(=O)=O)nc3)cc(Cl)nc12 [Example 84]	0.298	> 200	> 200
CNS(=O)(=O)c1ccc(Nc2cc(N[C@H]3CC[C@H](N)CC3)nc3c(C(C)C)cnn23)cc1 [Example 61]	0.032	6.63	11
Cc1noc(C)c1-c1cc(Nc2ccc(F)cc2)n2nccc2n1 [Example 2, 5-(3,5-Dimethylisoxazole)-7-(4-fluorophenylamino)pyrazolo[1,5-a]pyrimidine]	13.4	> 200	> 200
CC(C)c1cnn2c(Nc3ccc(S(=O)(=O)N(C)CCO)cc3)cc(OCCN(C)C)nc12 [Example 39]	0.403	80.8	> 200
COc1ccc(CNc2cc(-c3ccsc3)nc3ccnn23)cc1 [Example 8]	7.55	> 200	> 200
CC(C)c1cnn2c(Nc3ccc(S(=O)(=O)N(C)C)cc3)cc(N3CCN(CC4CCN(C)CC4)CC3)nc12 [Example 109]	10.3	15.2	> 200
NC(=O)c1ccc(Nc2cc(N[C@H]3CC[C@@H](N)CC3)nc3c(Br)cnn23)cc1 [Example 165]	0.026	0.62	1.2
O=S(=O)(c1ccc(Nc2cc(Cl)nc3ccnn23)cc1)N1CCOCC1 [Example 9]	0.99	> 200	> 200
CC(C)c1cnn2c(Nc3ccc(S(=O)(=O)N(C)C)cc3)cc(N(C)c3ccncc3)nc12 [Example 119]	22.7	> 200	> 200
CC(C)c1cnn2c(Nc3ccc(S(=O)(=O)N(C)CCO)cc3)cc(N3CCC(O)CC3)nc12 [Example 48]	1.46	> 200	> 200
CCc1cnn2c(Nc3ccc(S(C)(=O)=O)cc3)cc(OCC(C)C)nc12 [Example 44]	0.179	> 200	79.1
Oc1ccc(-c2cc(Nc3ccccc3)n3nccc3n2)cc1 [Example 4]	3.76	> 200	> 200
O=S(=O)(Nc1ccccn1)c1ccc(Nc2cc(Cl)nc3ccnn23)cc1 [Example 10]	1.63	> 200	> 200
NC(=O)c1ccc(Nc2cc(Cl)nc3c(Br)cnn23)cc1 [Example 145]	0.08	11	> 50
Cc1cccc(-c2cc(Nc3ccc(S(=O)(=O)Nc4ccccn4)cc3)n3nccc3n2)c1 [Example 18]	0.96	52.4	> 200
CC(C)c1cnn2c(Nc3ccc(S(C)(=O)=O)cc3)ccnc12 [Example 38]	0.313	> 200	> 200
O=S(=O)(c1ccc(Nc2ccnc3ccnn23)cc1)N1CCOCC1 [Example 16]	3.35	> 200	> 200

Further lines, results first:

IC50 [1] [µM]	IC50 [2] [µM]	IC50 [3] [µM]	Compound
7.5	18.7	> 200	CC(C)c1cnn2c(Nc3ccc(S(=O)(=O)N(C)C)cc3)cc(NCCN)nc12 [Example 98]
0.128	> 200	> 200	CN(C)S(=O)(=O)c1ccc(Nc2cc(Cl)nc3c(Br)cnn23)cc1 [Example 76]
24.9	> 200	10	CN(C)S(=O)(=O)c1ccc(Nc2cc(Cl)nc3c(-c4ccsc4)cnn23)cc1 [Example 156]
0.355	> 200	> 200	CC(C)c1cnn2c(Nc3ccc(S(=O)(=O)N(C)C)cc3)cc(NC3CCCCC3)nc12 [Example 63]
0.008	1.27	0.325	CN(C)S(=O)(=O)c1ccc(Nc2cc(N[C@H]3CC[C@H](N)CC3)nc3c(Br)cnn23)cc1 [Example 31, 3-bromo-5-(trans-4-aminocyclohexylamino)-7-(4-(N,N-dimethylsulphonamido)phenylamino)pyrazolo[1,5-a]pyrimidine]
0.419	> 200	> 200	CCN(CC)C(=O)COc1cc(Nc2ccc(S(=O)(=O)N(C)C)cc2)n2ncc(C(C)C)c2n1 [Example 88]
0.127	> 200	> 200	CC(C)c1cnn2c(Nc3ccc(S(=O)(=O)N(C)CCO)cc3)cc(Cl)nc12 [Example 34]
0.85	> 200	45.3	CCNc1cc(Nc2ccc(S(C)(=O)=O)cc2)n2ncc(C(C)C)c2n1 [Example 56]
0.32	79.9	> 200	CC(C)c1cnn2c(Nc3ccc(S(=O)(=O)N(C)C)cc3)cc(OC3CCN(C)C3)nc12 (stereo not drawn) [Example 70]
0.222	0.25	4.7	CS(=O)(=O)c1ccc(Nc2cc(N[C@H]3CC[C@@H](N)CC3)nc3c(Br)cnn23)cc1 [Example 164]
0.004	0.72	168	CN(C)S(=O)(=O)c1ccc(Nc2cc(N[C@H]3CC[C@H](N)CC3)nc3c(C4CCCC4)cnn23)cc1 [Example 167]
3.17	> 200	> 200	CC(C)c1cnn2c(Nc3ccc(S(=O)(=O)N(C)C)cc3)cc(C(=O)NCCN(C)C)nc12 [Example 122]
0.005	> 200	29.3	CN(C)S(=O)(=O)c1ccc(Nc2cc(Cl)nc3c(C4CC4)cnn23)cc1 [Example 127]
1.13	> 200	> 200	CCc1cnn2c(Nc3ccc(S(C)(=O)=O)cc3)cc(N(C)C)nc12 [Example 45]
22.1	> 200	> 200	CC(C)c1cnn2c(Nc3ccc(S(=O)(=O)N(C)C)cc3)cc(NCCCN3CCN(C)CC3)nc12 [Example 124]
2.05	2.2	3.12	CC(C)c1cnn2c(Nc3ccc(S(=O)(=O)N(C)C)cc3)cc(NC3CCCC(N)C3)nc12 (stereo not drawn) [Example 113]
0.092	29.3	30.3	CCN(CC)[C@H]1CC[C@H](Nc2cc(Nc3ccc(S(=O)(=O)N(C)C)cc3)n3ncc(C(C)C)c3n2)CC1 [Example 100]
0.062	> 200	> 200	CC(C)c1cnn2c(Nc3ccc(S(N)(=O)=O)cc3)cc(Cl)nc12 [Example 32]
10.5	> 200	> 200	CC(C)c1cnn2c(Nc3ccc(S(=O)(=O)N(C)C)cc3)cc(N3CCCC(C(=O)N(C)C)C3)nc12 (stereo not drawn) [Example 92]
7.81	4.75	> 200	CC(C)c1cnn2c(Nc3ccc(S(=O)(=O)N(C)C)cc3)cc(N3CCC[C@H]3CN)nc12 [Example 97]
